What all share (format): cell-based
Test [1] deals with Salmonella enterica serovar Enteritidis MH91989. Conditions: serovar Enteritidis MH91989, 1 h.
The subject of test [2] is Salmonella enterica serovar Typhimurium ATCC SL1344. Conditions: ATCC SL1344, 1 h.
Another test has as its system E. coli J2210. Conditions: J2210, 1 h.
For the next test, the system named is E. coli JW0013. Conditions: JW0013, 1 h.
The subject of another test is E. coli JJ2489. Conditions: JJ2489, 1 h.
In the next test the test system is E. coli FVEC 964. Conditions: FVEC 964, 1 h.
The test system of another test is E. coli PUTI 379. Conditions: PUTI 379, 1 h.
Test [3] concerns Salmonella Infantis #129 B. Conditions: 1 h.
Another test deals with E. coli FVEC 638. Conditions: FVEC 638, 1 h.
In test [4] the test system is Salmonella enterica serovar Newport. Conditions: 1 h.
In test [5] the test system is Salmonella enterica serovar Tennessee. The settings on record: 1 h.

The MIC is the least concentration at which growth counts as inhibited. A lower MIC goes with inhibition by little substance.

≈ marks a conversion by molar mass, not a printed value. Where a SMILES comes first, the peptide text is derived from it.

In the case of `CC(C)C[C@H](NC(=O)[C@H](CCCNC(=N)N)NC(=O)[C@@H]1CCCN1C(=O)[C@H](CCCNC(=N)N)NC(=O)[C@@H]1CCCN1C(=O)[C@@H]1CCCN1C(=O)[C@H](CCCNC(=N)N)NC(=O)[C@@H]1CCCN1C(=O)[C@H](CCC(N)=O)NC(=O)[C@@H]1CCCN1C(=O)[C@H](CCCCN)NC(=O)[C@H](Cc1ccc(O)cc1)NC(=O)[C@@H](NC(=O)[C@@H]1CCCN1C(=O)[C@H](CCCNC(=N)N)NC(=O)[C@H](CC(N)=O)NC(=O)[C@H](CC(N)=O)NC(=O)CN)C(C)C)C(=O)O` [Api_I8K/H15R] (H-GNNRPVYKPQPRPPRPRL-OH), the MIC in test [1] was found to be 0.096 ± 0.023 µM (≈ 0.206 µg/mL); in [2], 0.192 ± 0.044 µM (≈ 0.411 µg/mL); against E. coli J2210 it was 0.252 ± 0.087 µM (≈ 0.54 µg/mL); against E. coli JW0013, 0.062 ± 0.027 µM (≈ 0.133 µg/mL).

As to `CC(C)C[C@H](NC(=O)[C@H](CCCNC(=N)N)NC(=O)[C@@H]1CCCN1C(=O)[C@H](CCCNC(=N)N)NC(=O)[C@@H]1CCCN1C(=O)[C@@H]1CCCN1C(=O)[C@H](CCCNC(=N)N)NC(=O)[C@@H]1CCCN1C(=O)[C@H](CCC(N)=O)NC(=O)[C@@H]1CCCN1C(=O)[C@H](CCCNC(=N)N)NC(=O)[C@H](Cc1ccc(O)cc1)NC(=O)[C@@H](NC(=O)[C@@H]1CCCN1C(=O)[C@H](CCCNC(=N)N)NC(=O)[C@H](CC(N)=O)NC(=O)[C@H](CC(N)=O)NC(=O)CN)C(C)C)C(=O)O` [Api_I8R/H15R] (H-GNNRPVYRPQPRPPRPRL-OH), the MIC in [1] amounted to 0.067 ± 0.033 µM (≈ 0.145 µg/mL); with E. coli JW0013, 0.048 ± 0.011 µM (≈ 0.104 µg/mL).

For `CC[C@H](C)[C@H](NC(=O)[C@H](Cc1ccc(O)cc1)NC(=O)[C@@H](NC(=O)[C@@H]1CCCN1C(=O)[C@H](CCCCN)NC(=O)[C@H](CC(N)=O)NC(=O)[C@H](CC(N)=O)NC(=O)CN)C(C)C)C(=O)N1CCC[C@H]1C(=O)N[C@@H](CCC(N)=O)C(=O)N1CCC[C@H]1C(=O)N[C@@H](CCCNC(=N)N)C(=O)N1CCC[C@H]1C(=O)N1CCC[C@H]1C(=O)N[C@@H](CCCNC(=N)N)C(=O)N1CCC[C@H]1C(=O)N[C@@H](CCCNC(=N)N)C(=O)N[C@@H](CC(C)C)C(=O)O` [Api_R4K/H15R] (H-GNNKPVYIPQPRPPRPRL-OH), the MIC against E. coli JJ2489 was found to be 0.067 ± 0.033 µM (≈ 0.141 µg/mL); in test [1] it was 0.067 ± 0.033 µM (≈ 0.141 µg/mL); in test [2], 0.126 ± 0.052 µM (≈ 0.265 µg/mL); against E. coli J2210 it was 0.133 ± 0.061 µM (≈ 0.279 µg/mL); against E. coli JW0013, 0.048 ± 0.011 µM (≈ 0.101 µg/mL).

On to `CC(C)C[C@H](NC(=O)[C@H](CCCNC(=N)N)NC(=O)[C@@H]1CCCN1C(=O)[C@H](CCCNC(=N)N)NC(=O)[C@@H]1CCCN1C(=O)[C@@H]1CCCN1C(=O)[C@H](CCCNC(=N)N)NC(=O)[C@@H]1CCCN1C(=O)[C@H](CCC(N)=O)NC(=O)[C@@H]1CCCN1C(=O)[C@H](CCCCN)NC(=O)[C@H](Cc1ccc(O)cc1)NC(=O)[C@@H](NC(=O)[C@@H]1CCCN1C(=O)[C@H](CCCCN)NC(=O)[C@H](CC(N)=O)NC(=O)[C@H](CC(N)=O)NC(=O)CN)C(C)C)C(=O)O` [Api_R4K/I8K/H15R] (H-GNNKPVYKPQPRPPRPRL-OH), for which the MIC against E. coli JJ2489 stood at 0.252 ± 0.087 µM (≈ 0.533 µg/mL); in test [1], 0.133 ± 0.061 µM (≈ 0.281 µg/mL); with E. coli J2210 it was 0.267 ± 0.097 µM (≈ 0.565 µg/mL); in the test on E. coli JW0013, 0.096 ± 0.023 µM (≈ 0.203 µg/mL).

In the case of `CC(C)C[C@H](NC(=O)[C@H](CCCNC(=N)N)NC(=O)[C@@H]1CCCN1C(=O)[C@H](Cc1c[nH]cn1)NC(=O)[C@@H]1CCCN1C(=O)[C@@H]1CCCN1C(=O)[C@H](CCCNC(=N)N)NC(=O)[C@@H]1CCCN1C(=O)[C@H](CCC(N)=O)NC(=O)[C@@H]1CCCN1C(=O)[C@H](CCCCN)NC(=O)[C@H](Cc1ccc(O)cc1)NC(=O)[C@@H](NC(=O)[C@@H]1CCCN1C(=O)[C@H](CCCCN)NC(=O)[C@H](CC(N)=O)NC(=O)[C@H](CC(N)=O)NC(=O)CN)C(C)C)C(=O)O` [Api_R4K/I8K] (H-GNNKPVYKPQPRPPHPRL-OH), the MIC in the test with E. coli FVEC 964 stood at 0.048 ± 0.011 µM (≈ 0.101 µg/mL); against E. coli PUTI 379, 0.048 ± 0.011 µM (≈ 0.101 µg/mL); against E. coli JJ2489, 0.031 ± 0.014 µM (≈ 0.065 µg/mL); in test [3], 0.024 ± 0.006 µM (≈ 0.0503 µg/mL); in test [1] it was 0.031 ± 0.014 µM (≈ 0.065 µg/mL); with E. coli FVEC 638 it was 0.048 ± 0.011 µM (≈ 0.101 µg/mL). Besides, the MIC in test [2] turned out to be 0.034 ± 0.017 µM (≈ 0.0712 µg/mL); in [4] it was 0.024 ± 0.006 µM (≈ 0.0503 µg/mL); against E. coli J2210, 0.034 ± 0.017 µM (≈ 0.0712 µg/mL); in test [5] it was 0.024 ± 0.006 µM (≈ 0.0503 µg/mL); with E. coli JW0013 it was 0.012 ± 0.003 µM (≈ 0.0251 µg/mL).

As to `CC(C)C[C@H](NC(=O)[C@H](CCCNC(=N)N)NC(=O)[C@@H]1CCCN1C(=O)[C@H](CCCNC(=N)N)NC(=O)[C@@H]1CCCN1C(=O)[C@@H]1CCCN1C(=O)[C@H](CCCNC(=N)N)NC(=O)[C@@H]1CCCN1C(=O)[C@H](CCC(N)=O)NC(=O)[C@@H]1CCCN1C(=O)[C@H](CCCNC(=N)N)NC(=O)[C@H](Cc1ccc(O)cc1)NC(=O)[C@@H](NC(=O)[C@@H]1CCCN1C(=O)[C@H](CCCCN)NC(=O)[C@H](CC(N)=O)NC(=O)[C@H](CC(N)=O)NC(=O)CN)C(C)C)C(=O)O` [Api_R4K/I8R/H15R] (H-GNNKPVYRPQPRPPRPRL-OH), the results for the MIC (in the test on E. coli JJ2489; in test [1]; with E. coli J2210) were 0.133 ± 0.061 µM (≈ 0.285 µg/mL), 0.096 ± 0.023 µM (≈ 0.206 µg/mL) and 0.252 ± 0.087 µM (≈ 0.54 µg/mL), respectively.

With `CC[C@H](C)[C@H](NC(=O)[C@H](CCCNC(=N)N)NC(=O)[C@@H](N)CCCNC(=N)N)C(=O)N[C@@H](CCCNC(=N)N)C(=O)N[C@@H](CCCCN)C(=O)N[C@@H](CCCNC(=N)N)C(=O)N1CCC[C@H]1C(=O)N1CCC[C@H]1C(=O)N[C@@H](CCCNC(=N)N)C(=O)N[C@@H](CC(C)C)C(=O)N1CCC[C@H]1C(=O)N[C@@H](CCCNC(=N)N)C(=O)N1CCC[C@H]1C(=O)N[C@@H](CCCNC(=N)N)C(=O)N1CCC[C@H]1C(=O)N[C@@H](CCCCN)C(=O)O` [Bac_P5K/R16K] (H-RRIRKRPPRLPRPRPK-OH), the MIC against E. coli JJ2489 came out at 0.120 ± 0.028 µM (≈ 0.25 µg/mL); in [1], 0.120 ± 0.028 µM (≈ 0.25 µg/mL); in test [2], 0.120 ± 0.028 µM (≈ 0.25 µg/mL); against E. coli J2210 it was 0.157 ± 0.054 µM (≈ 0.326 µg/mL); in the test on E. coli JW0013, 0.060 ± 0.014 µM (≈ 0.125 µg/mL).

Consider `CC[C@H](C)[C@H](NC(=O)[C@H](CCCNC(=N)N)NC(=O)[C@@H](N)CCCNC(=N)N)C(=O)N[C@@H](CCCCN)C(=O)N[C@@H](CCCCN)C(=O)N[C@@H](CCCNC(=N)N)C(=O)N1CCC[C@H]1C(=O)N1CCC[C@H]1C(=O)N[C@@H](CCCNC(=N)N)C(=O)N[C@@H](CC(C)C)C(=O)N1CCC[C@H]1C(=O)N[C@@H](CCCNC(=N)N)C(=O)N1CCC[C@H]1C(=O)N[C@@H](CCCNC(=N)N)C(=O)N1CCC[C@H]1C(=O)N[C@@H](CCCCN)C(=O)O` [Bac_R4K/P5K/R16K] (H-RRIKKRPPRLPRPRPK-OH), for which the MIC in the test with E. coli JJ2489 came to 0.120 ± 0.028 µM (≈ 0.246 µg/mL); in test [1], 0.167 ± 0.061 µM (≈ 0.343 µg/mL); in test [2], 0.120 ± 0.028 µM (≈ 0.246 µg/mL); with E. coli J2210 it was 0.167 ± 0.061 µM (≈ 0.343 µg/mL); with E. coli JW0013, 0.060 ± 0.014 µM (≈ 0.123 µg/mL).

For `CC[C@H](C)[C@H](NC(=O)[C@H](CCCNC(=N)N)NC(=O)[C@@H](N)CCCNC(=N)N)C(=O)N[C@@H](CCCCN)C(=O)N[C@@H](CCCCN)C(=O)N[C@@H](CCCNC(=N)N)C(=O)N1CCC[C@H]1C(=O)N1CCC[C@H]1C(=O)N[C@@H](CCCNC(=N)N)C(=O)N[C@@H](CC(C)C)C(=O)N1CCC[C@H]1C(=O)N[C@@H](CCCNC(=N)N)C(=O)N1CCC[C@H]1C(=O)N[C@@H](CCCNC(=N)N)C(=O)N1CCC[C@H]1C(=O)N[C@@H](CCCNC(=N)N)C(=O)O` [Bac_R4K/P5K] (H-RRIKKRPPRLPRPRPR-OH), the MIC against E. coli JJ2489 was determined as 0.120 ± 0.028 µM (≈ 0.25 µg/mL); in test [1], 0.120 ± 0.028 µM (≈ 0.25 µg/mL); in [2] it was 0.120 ± 0.028 µM (≈ 0.25 µg/mL); in the test with E. coli J2210 it was 0.157 ± 0.054 µM (≈ 0.326 µg/mL); in the test with E. coli JW0013, 0.060 ± 0.014 µM (≈ 0.125 µg/mL).

Turning to `CC[C@H](C)[C@H](NC(=O)[C@H](CCCNC(=N)N)NC(=O)[C@@H](N)CCCNC(=N)N)C(=O)N[C@@H](CCCCN)C(=O)N1CCC[C@H]1C(=O)N[C@@H](CCCNC(=N)N)C(=O)N1CCC[C@H]1C(=O)N1CCC[C@H]1C(=O)N[C@@H](CCCNC(=N)N)C(=O)N[C@@H](CC(C)C)C(=O)N1CCC[C@H]1C(=O)N[C@@H](CCCNC(=N)N)C(=O)N1CCC[C@H]1C(=O)N[C@@H](CCCNC(=N)N)C(=O)N1CCC[C@H]1C(=O)N[C@@H](CCCCN)C(=O)O` [Bac_R4K/R16K] (H-RRIKPRPPRLPRPRPK-OH), the MIC was determined as 0.120 ± 0.028 µM (≈ 0.242 µg/mL) with E. coli JJ2489; 0.157 ± 0.054 µM (≈ 0.317 µg/mL) in test [1]; 0.120 ± 0.028 µM (≈ 0.242 µg/mL) in test [2]; 0.120 ± 0.028 µM (≈ 0.242 µg/mL) in the test with E. coli J2210; 0.060 ± 0.014 µM (≈ 0.121 µg/mL) against E. coli JW0013.

As to `CC[C@H](C)[C@H](NC(=O)[C@H](CCCNC(=N)N)NC(=O)[C@@H](N)CCCNC(=N)N)C(=O)N[C@@H](CCCNC(=N)N)C(=O)N1CCC[C@H]1C(=O)N[C@@H](CCCNC(=N)N)C(=O)N1CCC[C@H]1C(=O)N1CCC[C@H]1C(=O)N[C@@H](CCCNC(=N)N)C(=O)N[C@@H](CC(C)C)C(=O)N1CCC[C@H]1C(=O)N[C@@H](CCCNC(=N)N)C(=O)N1CCC[C@H]1C(=O)N[C@@H](CCCNC(=N)N)C(=O)N1CCC[C@H]1C(=O)N[C@@H](CCCNC(=N)N)C(=O)O` [Bac_WT, reference compound] (H-RRIRPRPPRLPRPRPR-OH), the MIC amounted to 0.120 ± 0.028 µM (≈ 0.249 µg/mL) against E. coli JJ2489, 0.120 ± 0.028 µM (≈ 0.249 µg/mL) in [1], 0.060 ± 0.014 µM (≈ 0.125 µg/mL) in test [2] and 0.120 ± 0.028 µM (≈ 0.249 µg/mL) against E. coli J2210.

The values above are taken from paper PMC6726534 (Biotechnology and bioengineering, 2019).
